Experimental data: patent US9023848B2 (Bionomics Limited, priority 2012, dated 2015)
Values after ≈ are worked out from the molar mass of the structure shown.

Tests used:
rat = assay: Elevated Plus Maze; type: in vivo; conditions: per os 1 hour before the test
Source text: The Elevated Plus Maze (EPM) situation rests on the conflict between the innate tendencies of rodents to explore novel environments and avoid open and brightly lit areas. In this task the mouse is placed in the centre of the maze. From here it can walk down any of four runways. Two of the arms are well lit and open, and the other two are enclosed and dimly lit. Mice prefer the closed arms but will venture out into the open arms. The amount of time spent in the open arms and the number of times the mice enter the open arms are recorded. The total walked distance in the open arms is also recorded. “Anxious” mice will spend little time in the open arms and make very few entries into the open arms.
The apparatus is made of polyvinylchloride materials and consists of four equal exploratory arms (45×10 cm) which are all interconnected by a small platform (10×10 cm). Two arms are open and two others are closed with walls (30 cm high). The apparatus is placed 66 cm above the floor. A videotracking system is used to record the test (ViewPoint, France). […]
A trial consists of placing an animal on the central platform facing a closed arm. The number of entries and the duration spent in open arms are automatically recorded by a videotrack system during an 5 minutes period. […]

mice [1] = assay: Modified Open Field (Dark), sedative or stimulating effect; type: in vivo; conditions: tested at 5-100 mg/kg, per os 1 hour before the test
Source text: The open field (dark) is used to measure the spontaneous motor activity of mice in a quiet, dark environment. This system is useful for discriminating the sedating or stimulating properties of test compounds on spontaneous locomotion and can thus provide a preliminary indication of potentially adverse effects such as sedation.
The apparatus is an open plexiglass cage (52×52 cm) with 40 cm walls. The animal's movements are tracked by a computerised video tracking system, consisting of an overhead camera, diode sensors placed underneath the floor of the cage, computer and video analyser software (ViewPoint, France). The video camera is placed at 2.50 m above the cage and connected to the computer via a video capture card (Pinnacle Systems, France). The video tracking system is set in a way that the floor of the OF is divided into nine equal squares. The total number of crossed squares and the total walked distance are recorded.
Each animal is singly placed in a corner of the apparatus and its locomotor activity is automatically recorded over a period of 20 minutes.
The apparatus is cleaned between each animal with alcohol (70%).
(§1) Test compound was prepared in aqueous vehicle containing 0.5% w/v hydroxypropylmethyl cellulose, 0.5% v/v benzyl alcohol and 0.4% v/v Tween 80. It was administrated per os 1 hour before the implementation of the test.

cortical neurons = assay: Neurite outgrowth assay; type: cell-based; conditions: rat cortical neurons, 3 days exposure, tested at 1 nM, 10 nM and 100 nM
Method: Female rats of 17 days gestation were killed by cervical dislocation and the foetuses were removed from the uterus. Their brains were placed in ice-cold medium of Leibovitz (L15, Gibco, Fisher bioblock, France). Cortex were dissected and meninges were carefully removed. The cortical neurons were dissociated by trypsinization for 30 min at 37° C. (trypsin-EDTA Gibco) in presence of 0.1 mg/ml DNAse I (Roche, France). The reaction was stopped by addition of Dulbecco's Modified Eagle Medium (DMEM; Gibco) with 10% of fetal bovine serum (FBS; Gibco). The suspension was triturated with a 10-ml pipette and using a 21G needle and syringe, and centrifuged at 350×g for 10 min at room temperature. The pellet of dissociated cells was resuspended in medium consisting of Neurobasal (Gibco) supplemented with 2% B27 supplement (Gibco), 0.5 mM L-Glutamine (Gibco), an antibiotic-antimicotic mixture. Viable cells were counted in a Neubauer cytometer using the trypan blue exclusion test (Sigma). Cells were seeded on the basis of 30000 cells per Petri dish (ø35 mm, Nunc) precoated with poly-L-lysine. […]
A global analysis of the data was performed using a one way analysis of variance (ANOVA), followed by Fisher's Protected Least Significant Difference when applicable. […] All results were expressed as mean±sem. […]

logD7.4 = type: physicochemical; conditions: pH 7.4
mice [2] = assay: Light Dark Box test (anxiolytic effect); type: in vivo; conditions: per os 1 hour before the test
Source text: The light dark paradigm is based on a conflict between the innate aversion of rodents to brightly illuminated areas and on the spontaneous exploratory behaviour of the mice. If given a choice between a large brightly compartment versus a small dark compartment they spontaneously prefer the dark part.
The apparatus consists of two PVC (polyvinylchloride) boxes (19×19×15 cm) covered with Plexiglas. One of these boxes is darkened. The other box is illuminated by 100 W desk lamp placed 15 cm above and providing an illumination of about 4400 Lux. An opaque plastic tunnel (5×7×10 cm) separates the dark box from the illuminated one.
Animals were placed individually in the lit box, with head directed towards the tunnel. The time spent in the lit box and the number of transitions between the two boxes was recorded over a 5 min period after the first entry of the animal in the dark box. The total walked distance in the lit box was also recorded. Animals scored without entry into the […] were excluded from the analysis.
as §1

Kinetic solubility = type: physicochemical; conditions: kinetic from dmso stock
mice [3] = assay: Forced Swim Test (antidepressant properties); type: in vivo; conditions: per os 1 hour before the test
Source text: The forced swim test is the most widely used paradigm for the evaluation of potential antidepressant effect of drugs. Animals placed in a container filled with water show periods of increased swimming activity and periods of relative immobility. Immobile posture reflects a state of tiredness, fatigue, reduced stamina or a lowered mood (hopelessness) similar to the core symptoms observed in depressed patients and in individuals under intense stress. […] The test has some predictive value for anti-depressant drugs. The apparatus consists of a glass cylinder (height 35 cm; diameter 24 cm) filled with water (depth: 25 cm, temperature: 25±1° C.).
as §1

mice [4] = assay: Marble Burying; type: in vivo; conditions: per os 1 hour before the test
Source text: The Marble Burying test is used as a model for both anxiety and obsessive compulsive disorders. Mice have a natural tendency to bury marbles under the bedding when placed in a cage with rows of evenly spaced marbles on the floor. Suppression of this spontaneous burying has been used as a measure of anxiolytic drug action. Mice pre-treated with benzodiazepines and different classes of antidepressants bury less marbles when compared to the control mice
The apparatus consists of transparent polycarbonate cages (30 cm×18 cm×19 cm) containing a 5 cm layer of fine sawdust bedding and 20 glass marbles (diameter: 1.5 cm) spaced evenly along the walls of the cage. Each animal is placed individually in the cage where it remains for a 20 min test session. On termination of the test session the animals are removed from the cage and the number of marbles at least two-thirds buried in the sawdust is recorded.
as §1

Compound | Elevated Plus Maze MED (Minimum Effective Dose) (rat) | Open Field (Dark) sedation (mice [1]) | Neurite outgrowth: significant effect at concentrations (cortical neurons) | logD (logD7.4) | Light Dark Box MED (Minimum Effective Dose) (mice [2]) | solubility kinetic (Kinetic solubility; pH 2, simulated gastric fluid) | solubility kinetic (Kinetic solubility; pH 6.5, aqueous buffer) | Forced Swim Test MED (Minimum Effective Dose) (mice [3]) | Marble Burying MED (Minimum Effective Dose) (mice [4])
Cc1nc2ccc(NC3Cc4ccccc4C3)cc2c(-c2ccccc2)c1C(=O)O [Example 1, 6-(2,3-dihydro-1H-inden-2-ylamino)-2-methyl-4-phenylquinoline-3-carboxylic acid] | MED 0.1 mg/kg | No Sedation | ≦100 nM | 2 | MED 0.1 mg/kg | 25 to 50 µg/mL (≈ 63.4 to 127 µM) | 50 to 100 µg/mL (≈ 127 to 254 µM) | MED 10 mg/kg | MED 0.1 mg/kg
Cc1nc2ccc(NC3Cc4ccccc4C3)cc2c(-c2ccccc2)c1C(=O)N1CCOCC1 [Example 2] |  |  |  |  | MED 10 mg/kg |  |  |  | 
